{"source": "ChEMBL document CHEMBL1129591", "about": "(J Med Chem, 1996)", "key": {"[1]": {"biological_target": "T1, 5-hydroxytryptamine receptor 1A (Homo sapiens, UniProt P08908)", "T1 sequence (P08908 whole entry)": "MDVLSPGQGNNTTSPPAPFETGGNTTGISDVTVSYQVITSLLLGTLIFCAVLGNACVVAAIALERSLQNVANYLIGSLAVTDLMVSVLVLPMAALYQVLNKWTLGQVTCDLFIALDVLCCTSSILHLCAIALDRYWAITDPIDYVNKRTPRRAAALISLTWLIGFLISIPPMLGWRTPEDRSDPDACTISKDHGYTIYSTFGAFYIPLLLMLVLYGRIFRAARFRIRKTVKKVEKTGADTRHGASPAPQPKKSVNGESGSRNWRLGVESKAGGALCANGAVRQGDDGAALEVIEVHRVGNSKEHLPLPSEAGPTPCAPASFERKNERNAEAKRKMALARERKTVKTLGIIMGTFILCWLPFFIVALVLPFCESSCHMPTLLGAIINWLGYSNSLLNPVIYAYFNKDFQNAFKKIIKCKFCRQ", "assay": "Ability to inhibit the forskolin-stimulated c-AMP formation mediated by human 5-hydroxytryptamine 1A receptor in CHO-K1 cells", "assay_type": "functional, cell-based"}, "[2]": {"biological_target": "T2, 5-hydroxytryptamine receptor 1B (Homo sapiens, UniProt P28222)", "T2 sequence (P28222 whole entry)": "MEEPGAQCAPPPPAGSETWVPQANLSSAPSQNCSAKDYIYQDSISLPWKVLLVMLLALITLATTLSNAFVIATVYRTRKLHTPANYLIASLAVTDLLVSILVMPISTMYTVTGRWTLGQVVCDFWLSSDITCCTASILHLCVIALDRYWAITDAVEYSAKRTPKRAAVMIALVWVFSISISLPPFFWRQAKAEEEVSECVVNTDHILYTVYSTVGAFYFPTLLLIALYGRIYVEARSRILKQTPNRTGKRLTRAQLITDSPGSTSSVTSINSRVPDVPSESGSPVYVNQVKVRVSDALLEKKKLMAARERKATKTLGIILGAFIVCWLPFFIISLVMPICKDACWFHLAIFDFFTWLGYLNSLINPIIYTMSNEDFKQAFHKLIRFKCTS", "assay": "Ability to inhibit the forskolin-stimulated c-AMP formation mediated by human 5-hydroxytryptamine 1B receptor in CHO-K1 cells", "assay_type": "functional, cell-based"}, "[3]": {"biological_target": "T2, 5-hydroxytryptamine receptor 1B", "assay": "Inhibition of forskolin-stimulated c-AMP formation by human 5-hydroxytryptamine 1B receptor expressed in CHO-K1 cells", "assay_type": "functional, cell-based"}, "[4]": {"biological_target": "5-hydroxytryptamine receptor 1D (Homo sapiens, UniProt P28221)", "sequence (P28221 whole entry)": "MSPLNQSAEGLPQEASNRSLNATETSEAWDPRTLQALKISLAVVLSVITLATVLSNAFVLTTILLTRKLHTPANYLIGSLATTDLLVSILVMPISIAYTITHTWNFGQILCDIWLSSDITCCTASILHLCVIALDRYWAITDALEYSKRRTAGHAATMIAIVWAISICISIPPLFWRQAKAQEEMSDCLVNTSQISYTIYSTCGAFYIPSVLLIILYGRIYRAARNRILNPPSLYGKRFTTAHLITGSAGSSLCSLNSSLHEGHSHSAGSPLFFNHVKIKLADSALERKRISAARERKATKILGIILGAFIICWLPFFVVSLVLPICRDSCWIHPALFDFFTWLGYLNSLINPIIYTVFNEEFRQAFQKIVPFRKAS", "assay": "Binding affinity at cloned human 5-hydroxytryptamine 1D receptor"}}, "data": [{"smiles": "NCCc1c[nH]c2ccc(OCC(=O)N3CCN(C(=O)COc4ccc5[nH]cc(CCN)c5c4)CC3)cc12", "values": [{"measurement": "Ki", "setting": "[1]", "value": 20, "unit": "nM"}, {"measurement": "Ki", "setting": "[2]", "value": 0.36, "unit": "nM"}, {"measurement": "EC50", "setting": "[3]", "value": 0.28, "unit": "nM"}, {"measurement": "Ki", "setting": "[4]", "value": 0.42, "unit": "nM"}]}, {"smiles": "NCCc1c[nH]c2ccc(OCC(=O)N3CCC(C4CCN(C(=O)COc5ccc6[nH]cc(CCN)c6c5)CC4)CC3)cc12", "values": [{"measurement": "Ki", "setting": "[1]", "value": 4, "unit": "nM"}, {"measurement": "Ki", "setting": "[2]", "value": 0.22, "unit": "nM"}, {"measurement": "EC50", "setting": "[3]", "value": 0.26, "unit": "nM"}, {"measurement": "Ki", "setting": "[4]", "value": 0.27, "unit": "nM"}]}, {"smiles": "NCCc1c[nH]c2ccc(OCC(=O)N3CCNCC3)cc12", "values": [{"measurement": "Ki", "setting": "[1]", "value": "> 100", "unit": "nM"}, {"measurement": "Ki", "setting": "[2]", "value": "> 100", "unit": "nM"}, {"measurement": "Ki", "setting": "[4]", "value": "> 100", "unit": "nM"}]}, {"smiles": "NCCc1c[nH]c2ccc(OCc3cccc(COc4ccc5[nH]cc(CCN)c5c4)c3)cc12", "values": [{"measurement": "Ki", "setting": "[1]", "value": 1, "unit": "nM"}, {"measurement": "Ki", "setting": "[2]", "value": 0.32, "unit": "nM"}, {"measurement": "EC50", "setting": "[3]", "value": 0.85, "unit": "nM"}, {"measurement": "Ki", "setting": "[4]", "value": 0.35, "unit": "nM"}]}, {"smiles": "NCCc1c[nH]c2ccc(OCC(=O)NCCCNC(=O)COc3ccc4[nH]cc(CCN)c4c3)cc12", "values": [{"measurement": "Ki", "setting": "[1]", "value": 8.6, "unit": "nM"}, {"measurement": "Ki", "setting": "[2]", "value": 0.3, "unit": "nM"}, {"measurement": "EC50", "setting": "[3]", "value": 0.09, "unit": "nM"}, {"measurement": "Ki", "setting": "[4]", "value": 0.3, "unit": "nM"}]}, {"smiles": "NCCc1c[nH]c2ccc(OCc3ccccc3COc3ccc4[nH]cc(CCN)c4c3)cc12", "values": [{"measurement": "Ki", "setting": "[1]", "value": 4.3, "unit": "nM"}, {"measurement": "Ki", "setting": "[2]", "value": 1.7, "unit": "nM"}, {"measurement": "EC50", "setting": "[3]", "value": 2.07, "unit": "nM"}, {"measurement": "Ki", "setting": "[4]", "value": 1.5, "unit": "nM"}]}, {"smiles": "NCCc1c[nH]c2ccc(OCCN3CCN(CCOc4ccc5[nH]cc(CCN)c5c4)CC3)cc12", "values": [{"measurement": "Ki", "setting": "[1]", "value": 9.5, "unit": "nM"}, {"measurement": "Ki", "setting": "[2]", "value": 0.26, "unit": "nM"}, {"measurement": "EC50", "setting": "[3]", "value": 0.19, "unit": "nM"}, {"measurement": "Ki", "setting": "[4]", "value": 0.35, "unit": "nM"}]}, {"smiles": "NCCc1c[nH]c2ccc(OCCCCCCOc3ccc4[nH]cc(CCN)c4c3)cc12", "values": [{"measurement": "Ki", "setting": "[1]", "value": 1.8, "unit": "nM"}, {"measurement": "Ki", "setting": "[2]", "value": 0.5, "unit": "nM"}, {"measurement": "EC50", "setting": "[3]", "value": 0.6, "unit": "nM"}, {"measurement": "Ki", "setting": "[4]", "value": 0.46, "unit": "nM"}]}, {"smiles": "NCCc1c[nH]c2ccc(OCCOc3ccc4[nH]cc(CCN)c4c3)cc12", "values": [{"measurement": "Ki", "setting": "[1]", "value": 14.3, "unit": "nM"}, {"measurement": "Ki", "setting": "[2]", "value": 2.5, "unit": "nM"}, {"measurement": "EC50", "setting": "[3]", "value": 4, "unit": "nM"}, {"measurement": "Ki", "setting": "[4]", "value": 1, "unit": "nM"}]}, {"smiles": "NCCc1c[nH]c2ccc(OCC(=O)Nc3ccc(N4CCN(C(=O)COc5ccc6[nH]cc(CCN)c6c5)CC4)cc3)cc12", "values": [{"measurement": "Ki", "setting": "[1]", "value": 9.8, "unit": "nM"}, {"measurement": "Ki", "setting": "[2]", "value": 0.14, "unit": "nM"}, {"measurement": "EC50", "setting": "[3]", "value": 0.4, "unit": "nM"}, {"measurement": "Ki", "setting": "[4]", "value": 0.09, "unit": "nM"}]}, {"smiles": "NCCc1c[nH]c2ccc(OCC(=O)Nc3ccc(NC(=O)COc4ccc5[nH]cc(CCN)c5c4)cc3)cc12", "values": [{"measurement": "Ki", "setting": "[1]", "value": 4.06, "unit": "nM"}, {"measurement": "Ki", "setting": "[2]", "value": 0.27, "unit": "nM"}, {"measurement": "EC50", "setting": "[3]", "value": 0.3, "unit": "nM"}, {"measurement": "Ki", "setting": "[4]", "value": 0.11, "unit": "nM"}]}, {"smiles": "NCCc1c[nH]c2ccc(OCCCCCCNS(=O)(=O)c3ccc(-c4ccc(S(=O)(=O)NCCCCCCOc5ccc6[nH]cc(CCN)c6c5)cc4)cc3)cc12", "values": [{"measurement": "Ki", "setting": "[1]", "value": 1.66, "unit": "nM"}, {"measurement": "Ki", "setting": "[2]", "value": 0.38, "unit": "nM"}, {"measurement": "EC50", "setting": "[3]", "value": 0.1, "unit": "nM"}, {"measurement": "Ki", "setting": "[4]", "value": 0.45, "unit": "nM"}]}, {"smiles": "NCCc1c[nH]c2ccc(OCCN3CCN(C(=O)COc4ccc5[nH]cc(CCN)c5c4)CC3)cc12", "values": [{"measurement": "Ki", "setting": "[1]", "value": 9.5, "unit": "nM"}, {"measurement": "Ki", "setting": "[2]", "value": 0.11, "unit": "nM"}, {"measurement": "EC50", "setting": "[3]", "value": 0.22, "unit": "nM"}, {"measurement": "Ki", "setting": "[4]", "value": 0.16, "unit": "nM"}]}, {"smiles": "NCCc1c[nH]c2ccc(OCc3ccc(COc4ccc5[nH]cc(CCN)c5c4)cc3)cc12", "values": [{"measurement": "Ki", "setting": "[1]", "value": 1.6, "unit": "nM"}, {"measurement": "Ki", "setting": "[2]", "value": 0.1, "unit": "nM"}, {"measurement": "EC50", "setting": "[3]", "value": 3, "unit": "nM"}, {"measurement": "Ki", "setting": "[4]", "value": 0.11, "unit": "nM"}]}, {"smiles": "NCCc1c[nH]c2ccc(OCCNC(=O)NCCOc3ccc4[nH]cc(CCN)c4c3)cc12", "values": [{"measurement": "Ki", "setting": "[1]", "value": 2.2, "unit": "nM"}, {"measurement": "Ki", "setting": "[2]", "value": 0.2, "unit": "nM"}, {"measurement": "EC50", "setting": "[3]", "value": 1.6, "unit": "nM"}, {"measurement": "Ki", "setting": "[4]", "value": 0.4, "unit": "nM"}]}, {"smiles": "NCCc1c[nH]c2ccc(OCCNC(=O)COc3ccc4[nH]cc(CCN)c4c3)cc12", "values": [{"measurement": "Ki", "setting": "[1]", "value": 2.2, "unit": "nM"}, {"measurement": "Ki", "setting": "[2]", "value": 0.16, "unit": "nM"}, {"measurement": "EC50", "setting": "[3]", "value": 0.44, "unit": "nM"}, {"measurement": "Ki", "setting": "[4]", "value": 0.18, "unit": "nM"}]}]}
